Our source for the GI50 and TGI values is PubChem BioAssay (NCI).

Common to all, as to assay: DTP human tumour cell line panel, 48 h
For assay [1], the system named is CCRF-CEM leukemia.
For assay [2], the system named is HS 578T breast.
Assay [3] relates to SF-268 CNS.
Assay [4] relates to OVCAR-5 ovarian.
Assay [5] deals with UO-31 renal.
Assay [6] has as its system COLO 205 colon.
The test system of assay [7] is A549 NSCLC.
Assay [8] concerns HCT-116 colon.
The subject of assay [9] is SK-MEL-2 melanoma.

Where “and” joins values, the source holds several entries; their conditions need not be identical. Identical values can stand only once.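 Compound exposure: 48 hours, 5 concentrations, 96-well plates. GI50 marks 50% less growth. TGI: total growth inhibition.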

As a reminder, the GI50 is the concentration giving 50% growth inhibition. By TGI is commonly meant the concentration giving total growth inhibition. On to `COc1cc(NC(=O)NCc2ccco2)ccc1-c1ccc(NC(=O)NCc2ccco2)cc1OC`, for which the GI50 in assay [1] is 16.8 µM; in [2], 1.51 µM; in assay [3], 0.98 µM; in assay [4], 19.5 µM; in assay [5] it was 4.4 µM; in assay [6] it was 3.1 µM. Moreover, the GI50 in assay [7] is 1.74 µM; in assay [8], 0.696 µM. The total growth inhibition concentration (TGI) in [1] was over 100 µM; in assay [2], 6.86 µM; in assay [3] it was 13.6 µM; in assay [4] it was over 100 µM; in assay [5], 55.8 µM; in assay [6] it was over 100 µM. In addition, the TGI in assay [7] was 28.3 µM; in [8], over 100 µM.

Take `O=C(N/C(=C\c1ccc(/C=C(\NC(=O)c2ccccc2)c2nc3ccccc3s2)cc1)c1nc2ccccc2s1)c1ccccc1`: the TGI in [9] worked out at 19.2 µM; in assay [1] it was 5.28 µM; in assay [3] it was 21.1 µM; in assay [4], 31 µM; in assay [5], 10.7 µM; in assay [6] it was 16.5 µM. Further, the results for the concentration for total growth inhibition (TGI) in assay [7] and in assay [8] were 35.2 µM and 30.9 µM, respectively.

For `CC1[C@@H]2CC=C3[C@H]4CCC5Cc6nc7c(nc6C[C@@]5(C)C4(O)CC(=O)[C@]32CO[C@]12OC(C)(C)CC2O)CC1CC[C@@H]2C3=C[C@H]4O[C@@]5(O[C@@](C)(CO)C[C@@H]5O)C(C)[C@@]4(O)[C@]3(C)[C@@H](O)CC2[C@]1(C)C7` (stereo not given in full), the GI50 in assay [9] was 0.00029 µM and 0.00117 µM; in assay [1] it was 0.000126 µM and 0.000441 µM; in assay [3], 0.000194 µM and 0.00144 µM; in [4] it was 0.0142 µM and 0.00734 µM; in assay [7] it was 0.000294 µM and 0.00121 µM. For the same compound, the TGI is 0.0164 µM and 0.0294 µM in assay [9]; 0.00723 µM and 0.0638 µM in [1]; 0.309 µM and 0.672 µM in assay [3]; 0.426 µM and 0.118 µM in [4]; 0.00658 µM and 0.0644 µM in assay [6]; 0.223 µM and 1.12 µM in [7]. Moreover, the TGI in assay [8] is 0.105 µM and 0.846 µM.

`Cn1c(=O)c(C(=O)NC(=O)NCCCCCOC(=O)CCCCCCCCCCC(=O)OCCCCCNC(=O)NC(=O)c2cn(Cc3ccccc3)c(=O)n(C)c2=O)cn(Cc2ccccc2)c1=O`: the TGI in assay [9], in [1], in [3], in assay [4], in assay [5] and in [6] was over 100 µM in each case. Also, the TGI in assay [7] and in assay [8] was over 100 µM in each case.

Consider `CC1(C(=O)O)CCOc2ccccc21` (stereo not given), for which the TGI in assay [1], in assay [3], in assay [4], in [5], in assay [6] and in assay [7] was over 100 µM each time. In assay [8], this compound displayed a TGI of over 100 µM.

For the compound `O=C(Nc1nc2ccc([N+](=O)[O-])cc2s1)C(=O)C(C(=O)c1ccncc1)C1OC(=O)c2ccccc21` (stereo not given), the concentration for total growth inhibition (TGI) in assay [1], in [3], in assay [4], in assay [6], in assay [7] and in assay [8] was over 100 µM throughout.

With `CCn1c(=O)c2ccccc2n2c(=O)c3cc4ccccc4cc3nc12`, the TGI in [9], in assay [1], in [3], in assay [4], in [5] and in assay [6] was over 100 µM in each case. Further, the TGI in assay [7] and in assay [8] was over 100 µM each time.

Regarding `Fc1ccc2c(c1)C1=C(CO2)C(c2ccc(Cl)cc2)NC(=S)N1` (stereo not given), the GI50 in [9] was 24.3 µM; in assay [4], 28.2 µM; in [5], 27.8 µM; in assay [6], 31.3 µM; in assay [7] it was 33.2 µM. Also, the TGI is 46.9 µM in assay [9]; 84.3 µM in [4]; 84 µM in [5]; 90.9 µM in assay [6]; over 100 µM in assay [7].

In the case of `NCc1c(C(N)=O)ncn1Cc1ccccc1`, the TGI in assay [1], in assay [6], in assay [7] and in assay [8] was over 100 µM throughout.

Regarding `Cc1c(-c2nnc(-c3ccccc3)o2)c(=O)n(-c2ccccc2)n1C`, the TGI in assay [9], in [1], in [3], in assay [5], in assay [6] and in assay [7] was over 100 µM throughout. The same compound registered a TGI in [8] of over 100 µM.

As to `CCOC(=O)N1C(c2ccccc2)C=CC(c2ccccc2)N1C(=O)OCC` (stereo not given), the TGI in assay [9], in assay [1], in assay [3], in assay [4], in assay [6] and in [7] was over 100 µM in each case. In addition, the TGI in assay [8] is over 100 µM.

As to `O=C1C(=O)N(c2nccs2)C(=O)C(=O)C1c1nc2ccccc2s1`, the TGI in [9], in [3], in assay [4], in assay [5], in [6] and in assay [7] was over 100 µM each time. In assay [8], this compound returned a TGI of over 100 µM.

`CC(C)CC12CC3CCC(CNC1=O)C32C` (stereo not given): the TGI in assay [9], in assay [1], in [3], in assay [4], in assay [5] and in assay [6] was over 100 µM in each case. For the same compound, the TGI in assay [7] and in assay [8] was over 100 µM throughout.

`Cc1ccc(C2=C(c3ccc(C)cc3)C(c3ccc(C)cc3)=C(c3ccc(C)cc3)C2=O)cc1`: the TGI in assay [9], in [1], in assay [3], in [4], in assay [5] and in [7] was over 100 µM each time. The TGI in assay [8] was over 100 µM.
